Laboratory results as given in patent US20230078425A1, “COMPOSITIONS AND METHODS FOR GENERATING SYNTHETIC LETHALITY IN TUMORS” (Engine Biosciences Pte. Ltd., priority 2021, published 2023).

System: LS180 cells
Test: CombiGEM CRISPR/Cas9 double-knockout screen (gene A biomarker + PKMYT1), barcode LFC and GI score, LS180
Format: cell-based, human
Description: A combinatorial genetic en masse (CombiGEM™) screen is used to validate synthetic lethal pairs identified by the computational methods described in Example 1. Methods of performing CombiGEM™ are known in the art and described in U.S. Pat. No. 9,315,806; Bari, et al. (2017) Scientific Reports 7:6993; Wong, et al (2016) PNAS 113:2544-2549, each of which are incorporated by reference in their entirety. This example provides an overview of the pooled screening method to validate predicted synthetic lethal pairs of gene A biomarkers and gene B targets.
Briefly, oligonucleotide synthesis is used to generate a library of barcoded gRNA target sequences directed to gene A biomarkers (“gene A gRNA library”) and a library of barcoded gRNA target sequences directed to gene B targets (“gene B gRNA library”). […]
The barcoded sgRNA lentiviral libraries are evaluated in Cas9-expressing cancer cell lines (e.g., HT29 and/or LS180 cell lines). […] Genomic DNA is harvested and used for quantification of the integrated barcodes using a combination of barcode amplification by PCR and sequencing by NGS. […] The barcode reads are normalized per million reads for each sample. To measure cell proliferation, barcode count ratios of normalized barcode reads were calculated as fold changes. […]

In the case of IGF1, the GI (gene interaction score = observed minus expected (gene A LFC + gene B LFC) double-knockout LFC, gene B = PKMYT1, LS180 cells) is reported as −1.07 and the “LFC (gene A * B)” value (log2 fold-change of barcode counts, double knockout of gene A biomarker and PKMYT1, Cas9-expressing LS180 cells) is reported as −1.68.
